Test results from US20080208039A1, “System and method of performing therapeutic endovascular interventions” (Wisconsin Alumni Research Foundation, priority 2007, published 2008).

Experiment: Diffusion of a fluorescent probe in swollen gelatin gel by FRAP
Assay type: physicochemical
Excerpt: To assess the stability of DTPA[Gd(III)] in the gelatin coating, the diffusion of a fluorescence probe in gelatin was studied by the technique of fluorescence recovery after photobleaching (FRAP). The instrument and data analysis scheme are described in Kim, S. H. and Yu, H., J. Phys. Chem. 1992, 96, 4034, which is hereby fully incorporated by reference. Fluorescein was used as the fluorescence probe due, in part, to its molecular size being roughly the same as that of DTPA[Gd(III)].
The focus of the study was to examine the possible retardation effects of gelatin concentration and cross-link density on the diffusion, which was determined at room temperature, i.e., below the gel point of gelatin. The diffusion of fluorescein probe slows down with the increase of gelatin concentration. The diffusion coefficient decreases from 1.5×10-10 to 9×10-12 m2s-1 when the concentration of gelatin increases from 9% to 40%. […] Accordingly, the probe diffusion is more likely controlled by the concentration of gelatin rather than the cross-link density. On the other hand, the cross-link density may determine the swelling ratio of gelatin, i.e., the concentration of gelatin in aqueous solution. […]

Row | SMILES | time to diffuse out of the gelatin coating (coating thickness 60 μm, diffusion coefficient 9×10-12 m2s-1) | fluorescence remaining in gelatin films after soaking (gelatin films soaked in water for 18 hours, including films not cross-linked)
1 | O=C(O)CN(CCN(CC(=O)O)CC(=O)O)CCN(CC(=O)O)CC(=O)O [DTPA, diethylenetriaminepentaacetic acid] | about 67 seconds | 
2 | O=C1OC2(c3ccc(O)cc3Oc3cc(O)ccc32)c2ccccc21 [fluorescein] |  | still fluorescence signal
